{"source": "patent US20160374368A9", "about": "“Mimicking the Metabolic Effect of Caloric Restrictions by Administration of Glucose Anti-Metabolites to Enhance Positive Response in a Mammal” (The Iams Company, priority 2013, published 2016)", "key": {"hexokinase": {"system": "hexokinase", "conditions": "cited from earlier work"}, "rodents": {"system": "rodents", "conditions": "cited from earlier work"}, "[1]": {"conditions": "cited from earlier work"}, "Labrador Retrievers [2]": {"system": "Labrador Retrievers", "test": "Annual kennel assessment of affective behavior in dogs fed control diet or control diet+MH", "type": "in vivo", "source_text": "Annual kennel assessments (period of 5 years) have been conducted on dogs fed a control diet or a control diet+MH. This assessment included two cohorts of Labrador Retrievers. Cohort 1 included 39 neutered Labrador Retrievers, 12 male and 27 female, ranged in age from 5.1 to 8.2 years old at the beginning of the test-feeding period (mean age at the beginning of the study 6.7 years). Cohort 2 included 41 neutered Labrador Retrievers, 12 males and 29 females ranged in age from 2.0 to 6.1 years old at the beginning of the test feeding period (mean age at the beginning of the study 4.0 years). Each cohort was fed a control diet or a test diet where the only differences was inclusion of mHep-enriched avocado extract targeted to supply 2 mg/kg body weight of MH. All researchers, lab assistants, and assessors were blinded to the feeding groups. Dogs were assessed during August and September each year. Each scorer was instructed to operate independently. Trained assessors were categorized as either familiar or unfamiliar to the dogs. The familiar assessors were people that worked with the dogs on a regular basis. […] Each assessing group was comprised of a handler and two scorers. All dogs were assessed with three people in the room with at least one familiar scorer in each group. This created a total of three possible conditions: familiar handler, two familiar scorers (Fam/Fam); familiar handler, one unfamiliar scorer, one familiar scorer (Fam/Unfam); unfamiliar handler, one unfamiliar scorer, one familiar scorer (Unfam/Unfam). The behaviors are outlined in Table 1. Calculating score: Assessors were asked to score dogs on a scale from 1-5 including half scores. For the behavior items, a score of 1 signified “Fails To Do” while 5 signified “Excellent”. For the demeanor items, a score of 1 signified “Strongly” while a score of 5 signified “Not at All”. All necessary items were reverse scored to allow higher scores to indicate a more favorable score and lower score to indicate a less favorable score. The sums of the corresponding behavior and demeanor items were used to calculate the score for each of the two behavior components. These scores were used to compare changes across years and between groups. [table]"}, "cats": {"system": "cats", "test": "Behavioural assessment of play motivation in cats (weighted swing door)", "type": "in vivo", "conditions": "vs same diets without MH", "source_text": "Twenty cats (N=20) of similar age (˜2.5 years), and split 10 female (5 lean and 5 moderately overweight) and 10 male (5 lean and 5 moderately overweight). To effectively test the effects of MH on energy metabolism dietary energy needs, intended to maintain weight, were provided equally between animals on a body weight basis; therefore, each cat received 45 kcal ME/kg body weight/d (females) and 50 kcal ME/kg body weight/d (males).\nFor two weeks prior to the initiation of the study cats were fed Iams® Original Chicken. Diets were presented in kibble form and cats were fed individually at 7:00 am each day and will be permitted 60 minutes to eat during food offerings. This feeding protocol were maintained throughout the entire study except on days in which fasted blood/calorimetry samples are obtained as cats were fed following the sampling period which was no later than 9:00 am. […]\nTwo walled stalls (each measuring: 100 cm W×100 cm L×75 cm H; Quenn City polymers, Dayton, Ohio), one classified as the start box and the other the goal box, each with a plexi-glass roof containing a 1 cm diameter hole in the center, were placed next to each other and connected via a swing door (23 cm W×18 cm H). […] Cats were assessed two times per dietary treatment on day 14 and again on day 37 at approximately 5 hrs post feeding. […]"}, "Labrador Retrievers [3]": {"system": "Labrador Retrievers", "test": "Serum Trp:LNAA ratio in dogs fed control diet or control diet +MH (HPLC amino acid analysis)", "type": "in vivo", "conditions": "200 ppm MH in the diet", "source_text": "Brain serotonin is known to influence the mood. Serotonin is synthesized in the brain from tryptophan, which uptake into the brain is dependent on the plasma ratio of tryptophan to the sum of other large neutral amino acids (Trp/LNAA). Other large amino acids include leucine, isoleucine, valine, phenylalanmine and tyrosine. It is well accepted that carbohydrate rich diets increase this ration and protein rich diets decrease the ration, in other words, when there is decrease in insulin sensitivity and a greater glycemic response, greater Trp/LNAA ratios are expected. Blood samples for amino acid analysis were collected from a total of 51 dogs fed a control diet or a control diet +MH. The blood samples were collected from two cohorts of Labrador Retrievers. Cohort 1 included 19 neutered Labrador Retrievers, 5 male and 14 female, ranged in age from 12.6 to 15.7 years old at the time of sampling. Cohort 2 included 32 neutered Labrador Retrievers, 9 males and 23 females ranged in age from 8.3 to 12.5 years old at the time of sampling. Each cohort was fed similar a control diet or a test diet where the only differences was inclusion of mHep enriched avocado juice concentrate targeted to supply 200 ppm MH in the diet. The avocado juice concentrate was derived from whole fruit (flesh, peel and pit) avocados. […]"}, "[4]": {"conditions": "injected, rats, cited from earlier work"}, "[5]": {"conditions": "cited from earlier work", "remark": "listed apart in the source"}, "isolated rat hepatocytes": {"system": "isolated rat hepatocytes", "conditions": "cited from earlier work"}, "[6]": {"conditions": "injected into a rat; cited from earlier work"}, "[7]": {"conditions": "2 mg/kg body weight MH, vs control diet"}}, "data": [{"smiles": "OC[C@H]1OC[C@H](O)[C@@H](O)[C@@H]1O", "note": "[1,5-Anhydro-D-Glucitol, 1,5-anhydro-D-glucitol]", "values": [{"measurement": "enzymatic conversion to the 6-phosphate", "setting": "hexokinase; compared with 2-deoxy-glucose", "value": "less efficient than that of 2-deoxy-glucose"}]}, {"smiles": "O=CC[C@@H](O)[C@H](O)[C@H](O)CO", "note": "[2-deoxy-D-glucose]", "values": [{"measurement": "side effects and toxicity", "setting": "rodents; high doses", "value": "significant untoward side effects and toxicity have been observed"}, {"measurement": "mimicking metabolic hallmarks of caloric restriction", "setting": "rodents; rodents, long-term, lower dose", "value": "can mimic some of the major metabolic hallmarks of caloric restriction and enhanced longevity, including reduced body temperature, weight loss, and lower fasting insulin levels"}]}, {"smiles": "O=C(CO)[C@@H](O)[C@@H](O)[C@H](O)[C@H](O)CO", "note": "[mannoheptulose]", "values": [{"measurement": "mannoheptulose ingested appearing in urine", "setting": "[1]; after oral administration", "value": "About 5%"}, {"measurement": "safety of oral doses", "setting": "[1]; doses of 10 grams, humans, orally", "value": "safely administered"}, {"measurement": "comfort in new areas score", "setting": "Labrador Retrievers [2]; 2 mg/kg body weight MH, unfamiliar/unfamiliar condition, vs control diet", "value": "significantly better response"}, {"measurement": "score for ability to handle new areas", "setting": "Labrador Retrievers [2]; [7]", "value": "higher scores"}, {"measurement": "score for social interaction", "setting": "Labrador Retrievers [2]; [7]", "value": "higher scores"}, {"measurement": "social interaction score, difference between groups", "setting": "Labrador Retrievers [2]; fam/fam or unfam/unfam condition", "value": "not different"}, {"measurement": "motivation to play", "setting": "cats", "value": "significantly greater motivation to play"}, {"measurement": "Trp:LNAA concentrations, fasting vs 4 hrs post fed", "setting": "Labrador Retrievers [3]; Cohort 1 (older dogs), P>0.05", "value": "no differences"}, {"measurement": "Trp:LNAA concentrations, fasting vs 4 hrs post fed", "setting": "Labrador Retrievers [3]; old and young cohorts pooled", "value": "no differences"}, {"measurement": "remained in the body", "setting": "[4]; a day after the injection", "value": 5, "unit": "%"}, {"measurement": "excreted unchanged", "setting": "[4]", "value": 66, "unit": "%"}, {"measurement": "metabolized", "setting": "[4]", "value": 29, "unit": "%"}]}, {"smiles": "CO[C@@H]([C@H](O)[C@H](O)CO)[C@@H](O)C=O", "note": "[3-O-methylglucose]", "values": [{"measurement": "metabolism of the analog", "setting": "[5]; in contrast with 2-deoxy-D-glucose", "value": "not metabolized"}, {"measurement": "responses to administration (prevention of glucose utilization as energy source) relative to 2-deoxyglucose", "setting": "[5]; rats", "value": "about seven times weaker than those to 2-deoxyglucose"}]}, {"smiles": "OC[C@H]1O[C@H](CO)[C@@H](O)[C@@H]1O", "note": "[2,5-Anhydro-D-mannitol, 2,5-anhydro-D-mannitol]", "values": [{"measurement": "effect on glucose formation and utilization", "setting": "isolated rat hepatocytes", "value": "interfere in glucose formation and utilization"}]}, {"smiles": "O=P(O)(O)OC[C@H]1OC[C@H](O)[C@@H](O)[C@@H]1O", "note": "[1,5-anhydro-D-glucitol-6-phosphate]", "values": [{"measurement": "inhibition of hexokinase", "setting": "hexokinase", "value": "allosteric (non-competitive) inhibitor of hexokinase"}]}, {"smiles": "O=C[C@H](O)[C@@H](O)[C@H](O)[C@H](S)CO", "note": "[5-Thioglucose, 5-thio-D-glucose]", "values": [{"measurement": "excreted unchanged in urine", "setting": "[6]", "value": 97, "unit": "%"}]}]}
